The values that follow come from patent publication US20230143612A1 (Arbutus Biopharma Corporation, priority 2020, published 2023).

The IC50 is the concentration needed to halve the response being measured. The low end stands for greater potency in that assay, the high end for weaker potency in that assay.

Chain of PD-L1 His protein / PD-1 Fc protein (Q9NZQ7 19-238 limits assumed): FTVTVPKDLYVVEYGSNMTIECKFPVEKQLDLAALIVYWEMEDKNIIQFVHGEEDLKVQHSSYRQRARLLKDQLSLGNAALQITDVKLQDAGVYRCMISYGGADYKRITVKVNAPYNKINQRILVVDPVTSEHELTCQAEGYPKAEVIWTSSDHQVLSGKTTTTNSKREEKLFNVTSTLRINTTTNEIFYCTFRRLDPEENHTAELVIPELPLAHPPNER

The target in the test is PD-L1 His protein / PD-1 Fc protein (Homo sapiens, UniProt Q9NZQ7). The test is described as follows: HTRF Assay (PD-1/PD-L1 interaction). The format is binding. Particulars: PD-L1 His 6 nM, PD-1 Fc 6 nM. Summed up:
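Compounds tested from 20 μM down to 0.001 μM (3-fold) against 6 nM PD-L1 His and 6 nM PD-1 Fc, 15 min room temperature incubation. Detection after 1 h at room temperature with Tb cryptate anti-6HIS and XL665 anti-human IgG reagents (mixture at 0.35 nM and 6.7 nM), HTRF signal.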
On the technique in general: TR-FRET usually uses a lanthanide donor and a delayed reading to cut background.
Take `COc1nc(-c2cccc(-c3cccc(-c4ccn5c(=O)c(CN6CC7(C6)CN(C(C)=O)C7)cnc5c4)c3Cl)c2Cl)ccc1CNC[C@@H]1CCC(=O)N1` [Example 329, (S)-3-((6-Acetyl-2,6-diazaspiro[3.3]heptan-2-yl)methyl)-8-(2,2′-dichloro-3′-(6-methoxy-5-((((5-oxopyrrolidin-2-yl)methyl)amino)methyl)pyridin-2-yl)-[1,1′-biphenyl]-3-yl)-4H-pyrido[1,2-a]pyrimidin-4-one]: the IC50 was 0.1 nM.

Consider `COc1nc(-c2cccc(-c3cccc(-c4cc5c(=O)n(C)c(CN6CC7(C6)CN(C(C)=O)C7)nn5c4)c3Cl)c2Cl)ccc1CNC[C@@H]1CCC(=O)N1` [Example 460, 2-[(2-Acetyl-2,6-diazaspiro[3.3]heptan-6-yl)methyl]-6-[2-chloro-3-[2-chloro-3-[6-methoxy-5-[[[(2S)-5-oxopyrrolidin-2-yl]methylamino]methyl]-2-pyridyl]phenyl]phenyl]-3-methyl-pyrrolo[2,1-f][1,2,4]triazin-4-one], for which the IC50 turned out to be 9.9 nM. Compared with the last molecule, the IC50 is about 99-fold higher.

For the molecule `COc1nc(-c2cccc(-c3cccc(-c4ccc5nc(C(=O)NCCc6c[nH]cn6)cn5n4)c3Cl)c2Cl)ccc1CNC[C@@H]1CCC(=O)N1` [Example 440, 6-[2-Chloro-3-[2-chloro-3-[6-methoxy-5-[[[(2S)-5-oxopyrrolidin-2-yl]methylamino]methyl]-2-pyridyl]phenyl]phenyl]-N-[2-(1H-imidazol-4-yl)ethyl]imidazo[1,2-b]pyridazine-2-carboxamide], it took 27 nM to reach half-maximal inhibition (IC50). This IC50 is about 2.7-fold higher than that of the molecule before.

`COc1nc(-c2cccc(-c3cccc(-c4ccn5c(=O)c6c(nc5c4)N(C)CCNC6)c3Cl)c2Cl)ccc1CNC[C@@H]1CCC(=O)N1` [Example 374, (S)-10-(2,2′-Dichloro-3′-(6-methoxy-5-((((5-oxopyrrolidin-2-yl)methyl)amino)methyl)pyridin-2-yl)-[1,1′-biphenyl]-3-yl)-1-methyl-2,3,4,5-tetrahydropyrido[1′,2′:1,2]pyrimido [4,5-e][1,4]diazepin-6(1H)-one]: the IC50 came out at 6.5 nM. This IC50 lies about 4.2-fold lower than the previous one.

Molecule `COc1nc(-c2cccc(-c3cccc(-c4cnc5c(CNC[C@@H]6CCC(=O)N6)c(OC)nn5c4)c3Cl)c2Cl)ccc1CNC[C@@H]1CCC(=O)N1` [Example 379, (S)-5-((((6-(2,2′-Dichloro-3′-(2-methoxy-3-(((((S)-5-oxopyrrolidin-2-yl)methyl)amino)methyl)pyrazolo[1,5-a]pyrimidin-6-yl)-[1,1′-biphenyl]-3-yl)-2-methoxypyridin-3-yl)methyl)amino)methyl)pyrrolidin-2-one] gave an IC50 of 5.6 nM.

Turning to `COc1nc(-c2cccc(-c3cccc(-c4ccn5c(=O)c(CNC[C@@H]6CCC(=O)N6)ccc5c4)c3Cl)c2Cl)cnc1CNC[C@@H]1CCC(=O)N1` [Example 107, 8-(2,2′-Dichloro-3′-(6-methoxy-5-(((((S)-5-oxopyrrolidin-2-yl)methyl)amino)methyl)pyrazin-2-yl)-[1,1′-biphenyl]-3-yl)-3-(((((S)-5-oxopyrrolidin-2-yl)methyl)amino)methyl)-4H-quinolizin-4-one], the IC50 worked out at 0.4 nM.

On to `COc1nc(-c2cccc(-c3cccc(-c4cc5c(=O)n(C)c(CNC6CCN(C(C)=O)CC6)nn5c4)c3Cl)c2Cl)ccc1CNC[C@@H]1CCC(=O)N1` [Example 457, 2-[[(1-Acetyl-4-piperidyl)amino]methyl]-6-[2-chloro-3-[2-chloro-3-[6-methoxy-5-[[[(2S)-5-oxopyrrolidin-2-yl]methylamino]methyl]-2-pyridyl]phenyl]phenyl]-3-methyl-pyrrolo[2,1-f][1,2,4]triazin-4-one], for which the IC50 amounted to 190 nM.

With `COc1nc(-c2cccc(-c3cccc(-c4ccn5c(Cl)c(CNCCO)nc5c4)c3Cl)c2Cl)ccc1CNCCO` [Example 383, 2-[[6-[2-Chloro-3-[2-chloro-3-[3-chloro-2-[(2-hydroxyethylamino)methyl]imidazo[1,2-a]pyridin-7-yl]phenyl]phenyl]-2-methoxy-3-pyridyl]methylamino]etanol], half-maximal inhibition (IC50) required 40 nM.

Take `COc1cc(-c2cccc(-c3cccc(-c4ccn5c(=O)c(CN(C)CCO)cnc5c4)c3Cl)c2Cl)cnc1CN(C)CCO` [Example 362, 8-(2,2′-Dichloro-3′-(6-(((2-hydroxyethyl)(methyl)amino)methyl)-5-methoxypyridin-3-yl)-[1,1′-biphenyl]-3-yl)-3-(((2-hydroxyethyl)(methyl)amino)methyl)-4H-pyrido[1,2-a]pyrimidin-4-one]: the IC50 was determined as 36 nM. This IC50 and that of the molecule before are within 1.5-fold of each other.

In turn, `COc1cc(-c2cccc(-c3cccc(-c4ccc(CNC[C@@H]5CCC(=O)N5)c(OC)n4)c3Cl)c2Cl)cc2c1CN(CCC1(O)CCC1)CC2` [Example 484, (S)-5-((((6-(2,2′-Dichloro-3′-(2-(2-(1-hydroxycyclobutyl)ethyl)-8-methoxy-1,2,3,4-tetrahydroisoquinolin-6-yl)-[1,1′-biphenyl]-3-yl)-2-methoxypyridin-3-yl)methyl)amino)methyl)pyrrolidin-2-one] yielded an IC50 of 0.3 nM. Against the preceding molecule, the IC50 is about 120-fold lower.

Regarding `COc1nc(-c2cccc(-c3cccc(-c4cc5c(=O)n(C)c(CNCCC(F)(F)F)nn5c4)c3Cl)c2Cl)ccc1CNC[C@@H]1CCC(=O)N1` [Example 406, (S)-6-(2,2′-Dichloro-3′-(6-methoxy-5-((((5-oxopyrrolidin-2-yl)methyl)amino)methyl)pyridin-2-yl)-[1,1′-biphenyl]-3-yl)-3-methyl-2-(((3,3,3-trifluoropropyl)amino)methyl)pyrrolo[2,1-f][1,2,4]triazin-4(3H)-one], the IC50 turned out to be 33 nM.

In the case of `COc1nc(-c2cccc(-c3cccc(-c4ccn5c(=O)c(CNC[C@@H]6CCC(=O)N6)cnc5c4)c3Cl)c2Cl)cnc1N1CC(N)C1` [Example 71, (S)-8-(3′-(5-(3-Aminoazetidin-1-yl)-6-methoxypyrazin-2-yl)-2,2′-dichloro-[1,1′-biphenyl]-3-yl)-3-((((5-oxopyrrolidin-2-yl)methyl)amino)methyl)-4H-pyrido[1,2-a]pyrimidin-4-one], half-maximal inhibition (IC50) required 2 nM.

With `COc1nc(-c2cccc(-c3cccc(-c4ccn5c(=O)c(C6=NCC(O)CN6)c(C)nc5c4)c3Cl)c2Cl)ccc1CNC[C@@H]1CCC(=O)N1` (stereo partly drawn) [Example 290, 8-(2,2′-dichloro-3′-(6-methoxy-5-(((((S)-5-oxopyrrolidin-2-yl)methyl)amino)methyl)pyridin-2-yl)-[1,1′-biphenyl]-3-yl)-3-(5-hydroxy-1,4,5,6-tetrahydropyrimidin-2-yl)-2-methyl-4H-pyrido[1,2-a]pyrimidin-4-one], the IC50 was determined as 0.4 nM. This IC50 is about 5-fold lower than that of the molecule before.

Take `COc1nc(-c2cccc(-c3cccc(-c4ccc5c(n4)CCC[C@H]5NC[C@@H]4CCC(=O)N4)c3Cl)c2Cl)ccc1CNC[C@@H]1CCC(=O)N1` [Example 456, (S)-5-((((6-(2,2′-Dichloro-3′-((R)-5-((((S)-5-oxopyrrolidin-2-yl)methyl)amino)-5,6,7,8-tetrahydroquinolin-2-yl)-[1,1′-biphenyl]-3-yl)-2-methoxypyridin-3-yl)methyl)amino)methyl)pyrrolidin-2-one]: it took 0.2 nM to reach half-maximal inhibition (IC50). Compared with the last molecule, the IC50 is about 2-fold lower.

Consider `COc1nc(-c2cccc(-c3cccc(-c4ccc5nc(CNC[C@H](C)O)cn5n4)c3Cl)c2Cl)ccc1CNC[C@@H]1CCC(=O)N1` [Example 354, (5S)-5-[[[6-[2-Chloro-3-[2-chloro-3-[2-[[[(2S)-2-hydroxypropyl]amino]methyl]imidazo[1,2-b]pyridazin-6-yl]phenyl]phenyl]-2-methoxy-3-pyridyl]methylamino]methyl]pyrrolidin-2-one], for which the IC50 was 0.8 nM.

For the molecule `COc1nc(-c2cccc(-c3cccc(-c4cc5ncc(CNCCO)cc5cn4)c3Cl)c2Cl)ccc1CNC[C@@H]1CCC(=O)N1` [Example 334, (S)-5-((((6-(2,2′-Dichloro-3′-(3-(((2-hydroxyethyl)amino)methyl)-1,6-naphthyridin-7-yl)-[1,1′-biphenyl]-3-yl)-2-methoxypyridin-3-yl)methyl)amino)methyl)pyrrolidin-2-one], the IC50 was 0.1 nM. This IC50 is about 8-fold lower than that of the molecule before.

`COc1nc(-c2cccc(-c3cccc(-c4ccc5c(c4)CCCNC5)c3Cl)c2Cl)ccc1CNC[C@@H]1CCC(=O)N1` [Example 344, (S)-5-((((6-(2,2′-Dichloro-3′-(2,3,4,5-tetrahydro-1H-benzo[c]azepin-7-yl)-[1,1′-biphenyl]-3-yl)-2-methoxypyridin-3-yl)methyl)amino)methyl)pyrrolidin-2-one] had a half-maximal inhibitory concentration (IC50) of 570 nM. Against the preceding molecule, the IC50 is about 5700-fold higher.

`COc1nc(-c2cccc(-c3cccc(-c4ccn5c(=O)c(CN(C)C[C@@H]6CCC(=O)N6)cnc5c4)c3C)c2Cl)ccc1CNC[C@@H]1CCC(=O)N1` [Example 54, 8-(2′-Chloro-3′-(6-methoxy-5-(((((S)-5-oxopyrrolidin-2-yl)methyl)amino)methyl)pyridin-2-yl)-2-methyl-[1,1′-biphenyl]-3-yl)-3-((methyl(((S)-5-oxopyrrolidin-2-yl)methyl)amino)methyl)-4H-pyrido[1,2-a]pyrimidin-4-one]: it took 7 nM to reach half-maximal inhibition (IC50).

As for `COc1nc(-c2cccc(-c3cccc(-c4cc5c(=O)n(C)c(CNCC(C)(C)C(F)(F)F)nn5c4)c3Cl)c2Cl)ccc1CNC[C@@H]1CCC(=O)N1` [Example 466, (S)-6-(2,2′-Dichloro-3′-(6-methoxy-5-((((5-oxopyrrolidin-2-yl)methyl)amino)methyl)pyridin-2-yl)-[1,1′-biphenyl]-3-yl)-3-methyl-2-(((3,3,3-trifluoro-2,2-dimethylpropyl)amino)methyl) pyrrolo[2,1-f][1,2,4]triazin-4(3H)-one], the half-inhibitory concentration (IC50) stood at 63 nM.

On to `COc1nc(-c2cccc(-c3cccc(-c4ccn5c(=O)c(CNC[C@@H]6CCC(=O)N6)cnc5c4)c3Cl)c2Cl)ccc1CNCCO` [Example 102, (S)-8-(2,2′-Dichloro-3′-(5-(((2-hydroxyethyl)amino)methyl)-6-methoxypyridin-2-yl)-[1,1′-biphenyl]-3-yl)-3-((((5-oxopyrrolidin-2-yl)methyl)amino)methyl)-4H-pyrido[1,2-a]pyrimidin-4-one], for which the IC50 was 7.1 nM.
